One data set deals with Kainate. Put plainly: Radioligand binding, Kainate, [3H]KA. From the text: (§1) EAAs are known to play important roles in excitatory neurotransmission in partial seizures as discussed earlier. […] Thus, several aminoalkylpyridines of this invention are effective antagonists of NMDA-receptor mediated EAA neurotransmission and function as noncompetitive NMDA antagonists and thus can be used to advantage in epilepsy, stroke and Alzheimer's disease.
(§2) EAAs are known to play important roles in excitatory transmission in partial seizures as discussed earlier. In general, antieptileptic drugs effective against MES seizures alter ionic transport across excitable membranes [Porter, R. J., and Pitlick, W. H., In "Basic and Clinical Pharmacology", 4th Edn., B. G. Katzung, Ed., Appleton and Lange, CA 1989, pp. 287-303]. Based on this rationale, the aminoalkylpyridines may be expected to attenuate EAA neurotransmission. Indeed, evaluation of potential displacement activity of #2 at all inhibitory and excitatory amino acid receptor types and subtypes using appropriate radioligands, indicate that this aminoalkylpyridine inhibits at 10 μM concentration, 49% of the binding of [^3 H]DTG, a ligand highly specific for the σ (sigma) receptor population of the PCP receptors on the NMDA receptor-ionophore complex (Table 6).
(§3) Values are expressed as the percent inhibition of specific binding and […]

The target in a further data set is Benzodiazepine. Put plainly: Radioligand binding, Benzodiazepine.
Description: as §1, §2, §3

Another data set concerns GABAA. Put plainly: Radioligand binding, GABAA. From the text: (§4) EAAs are known to play important roles in excitatory neurotransmission in partial seizures as discussed earlier.
(§5) EAAs are known to play important roles in excitatory transmission in partial seizures as discussed earlier.

Data set [1] can be described thus: Rotorod ataxia test (neurotoxicity), mice, i.p. Conditions: mouse, in vivo, ip. How it is done: Neurotoxicity is evaluated in mice by the rotorod ataxia test. The animal is placed on a wooden rod of 11/8" diameter rotating at 6 rpm. Normal mice can remain on a rod rotating at this speed indefinitely.
Data set [2] has as its system subcutaneous pentylenetetrazol seizures. Put plainly: Subcutaneous pentylenetetrazol seizure threshold test (scMet), rat, p.o. Type of data set: in vivo, rat (Sprague-Dawley). The following applies: po. How it is done: (§6) The Subcutaneous Pentylenetetrazol (Metrazole) Seizure Threshold Test (scMet): A 0.5% solution of 85 mg/kg of pentylenetetrazol is administered subcutaneously in the posterior midline. The animal is observed for 30 minutes.

The next data set has as its system NMDA. In words: Radioligand binding, NMDA, [3H]CGS19755.
Description: as §1, §2, §3

A further data set deals with Quisqualate. Put plainly: Radioligand binding, Quisqualate, [3H]AMPA.
Description: as §1, §2, §3

In another data set the test system is MES and scMet seizures. In words: Anticonvulsant screening, ASP classification (MES and scMet tests) in mice, i.p. Type of data set: in vivo, mouse. The following applies: ip; i.p. mouse; read-out: ASP Group Classification.
Data set [3] relates to maximal electroshock seizures. Put plainly: Maximal electroshock seizure (MES) test, anticonvulsant quantification in mice, i.p. Conditions: for ED50: Mus musculus, ip, read-out: ED50 MES; for P.I. MES (TD50/ED50): mice.
Description: Screening Methodology to Determine Anticonvulsant Activity: In mice, i.p.: All compounds are solubilized in 0.5% methylcellulose. […] The compounds are administered intraperitoneally in a volume of 0.01 ml/gm to male Carworth Farms #1 mice weighing about 20 gm. All compounds are tested at least at three dose levels (30, 100 an 300 mg/kg) at 30 minutes and 4 hours after their administration.
(§7) The Maximal Electroshock Seizure Test (MES): Maximal electroshock seizures are elicited with a 60 Hz alternating current of 50 mA intensity in mice and about 150 mA in rats (5-7 times that necessary to elicit minimal electroshock seizures), delivered for 0.2 sec via corneal electrodes. A drop of 0.9% saline is instilled in the eye prior to application of the electrodes in order to prevent the death of the animal. Abolition of the hind limb tonic extension component of the seizure is defined as protection and results are expressed as number of animals protected/number of animals tested.
Anticonvulsant Quantification in Mice, i.p.: The ED50 values are determined in the MES, scMet and rotorod ataxia test.
In data set [4] the test system is maximal electroshock seizures. In words: Maximal electroshock seizure (MES) test in the rat, p.o. Conditions: for ED50 / responders at 50 mg/kg: Rattus norvegicus, po; for ED50: read-out: ED50 MES; for responders at 50 mg/kg: read-out: Percent protection at 50 mg/kg dose, p.o., in the MES Test in the rat; for P.I. MES (TD50/ED50): rat, p.o.
Description: as §7
This species will be subject of the complete anticonvulsant quantification test evaluation as described above, but after oral (gavage) administration of the candidate compound.
Neurological deficit in rats is examined by the positional sense test and gait and stance test. […] Inability to do so rapidly indicates a neurologic deficit. In the gait and stance test, a neurologic deficit is indicated by a circular or zigzag gait, ataxia, abnormal spread of the legs, abnormal body posture, tremor, hyperactivity, lack of exploratory behavior, somnolence, stupor, or catalepsy.
A further data set relates to MK-801. In words: Radioligand binding, MK-801, [3H]MK-801.
Description: as §1, §2, §3

Data set [5] deals with subcutaneous pentylenetetrazol seizures. In words: Subcutaneous pentylenetetrazol (Metrazole) seizure threshold test (scMet), mice, i.p. The format is in vivo. Conditions: Mus musculus, ip. The protocol:
as §6

For data set [6], the system named is endogenous L-glutamate release. In words: Ca2+ dependent, K+ evoked release of endogenous L-glutamate in cerebrocortical slices. Type of data set: cell-based, guinea pig. The following applies: Cavia porcellus; for activity at 50 µM / activity at 100 µM: means ± SEM, n = 4.
Data set [7] has as its target Glycine (Homo sapiens, UniProt P23415). In words: Radioligand binding, Glycine (inhibitory).
Description: as §4, §5

A further data set relates to PCF. Put plainly: Radioligand binding, PCP, [3H]TCP.
Description: as §1, §2, §3

The next data set relates to Adenosine. Put plainly: Radioligand binding, Adenosine.
Description: as §1, §2, §3

A further data set is described as follows: in vivo. Details: species or system rat (Sprague-Dawley). Conditions: rat, po. The text has this: Inability to do so rapidly indicates a neurologic deficit.
The next data set addresses GABAe (Homo sapiens, UniProt Q9UBS5). In words: Radioligand binding, GABAe.
Description: as §4, §5

The target in data set [8] is Glycine (Homo sapiens, UniProt Q05586). Put plainly: Radioligand binding, Glycine (excitatory), [3H]glycine.
Description: as §4, §5

A further data set deals with Sigma. In words: Radioligand binding, Sigma, [3H]DTG. Conditions: for inhibition of the binding of [3H]DTG (in words): σ receptor population.
Description: as §4, §5

The mark [9] stands for this setting: 10^-7 M, read-out: Percent Inhibition of specific binding (Average; N = 2).

From US5648369A, “Aminoalkylpyridine compounds which are useful as anitconvulsant drugs, excitatory amino acid inhibitors and NMDA sigma receptor antagonists” (priority 1991, dated 1997) come the findings set out here.

Some results are limits rather than exact numbers.

Chain of Glycine (Homo sapiens, UniProt P23415) (P23415 29-457): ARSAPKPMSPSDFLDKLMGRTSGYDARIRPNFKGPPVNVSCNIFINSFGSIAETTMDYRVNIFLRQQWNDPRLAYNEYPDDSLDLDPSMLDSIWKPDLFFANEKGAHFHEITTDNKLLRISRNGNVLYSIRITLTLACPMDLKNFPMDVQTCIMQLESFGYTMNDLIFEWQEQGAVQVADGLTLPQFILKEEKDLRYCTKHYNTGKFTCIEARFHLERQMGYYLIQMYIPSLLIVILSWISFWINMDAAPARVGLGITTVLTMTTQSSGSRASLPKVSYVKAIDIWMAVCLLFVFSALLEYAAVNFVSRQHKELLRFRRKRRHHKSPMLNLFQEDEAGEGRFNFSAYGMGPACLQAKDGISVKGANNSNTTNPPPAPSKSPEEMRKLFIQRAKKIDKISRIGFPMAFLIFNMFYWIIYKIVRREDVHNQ
Chain of Glycine (Homo sapiens, UniProt P23415) (P48167 23-497 partner): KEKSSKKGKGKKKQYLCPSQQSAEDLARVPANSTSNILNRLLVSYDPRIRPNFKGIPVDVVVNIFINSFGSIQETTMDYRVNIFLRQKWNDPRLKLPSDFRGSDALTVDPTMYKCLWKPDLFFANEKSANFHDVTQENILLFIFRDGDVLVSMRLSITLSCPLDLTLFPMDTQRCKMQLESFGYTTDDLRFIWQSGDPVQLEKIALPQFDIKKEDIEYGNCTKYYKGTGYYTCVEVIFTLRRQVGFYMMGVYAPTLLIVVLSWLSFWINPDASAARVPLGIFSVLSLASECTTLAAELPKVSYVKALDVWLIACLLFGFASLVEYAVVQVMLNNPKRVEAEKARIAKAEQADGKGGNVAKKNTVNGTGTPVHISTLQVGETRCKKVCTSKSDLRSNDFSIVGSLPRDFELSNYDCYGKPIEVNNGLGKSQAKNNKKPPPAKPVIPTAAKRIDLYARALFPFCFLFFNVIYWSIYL
Chain of GABAe (Q9UBS5 15-961 limits assumed): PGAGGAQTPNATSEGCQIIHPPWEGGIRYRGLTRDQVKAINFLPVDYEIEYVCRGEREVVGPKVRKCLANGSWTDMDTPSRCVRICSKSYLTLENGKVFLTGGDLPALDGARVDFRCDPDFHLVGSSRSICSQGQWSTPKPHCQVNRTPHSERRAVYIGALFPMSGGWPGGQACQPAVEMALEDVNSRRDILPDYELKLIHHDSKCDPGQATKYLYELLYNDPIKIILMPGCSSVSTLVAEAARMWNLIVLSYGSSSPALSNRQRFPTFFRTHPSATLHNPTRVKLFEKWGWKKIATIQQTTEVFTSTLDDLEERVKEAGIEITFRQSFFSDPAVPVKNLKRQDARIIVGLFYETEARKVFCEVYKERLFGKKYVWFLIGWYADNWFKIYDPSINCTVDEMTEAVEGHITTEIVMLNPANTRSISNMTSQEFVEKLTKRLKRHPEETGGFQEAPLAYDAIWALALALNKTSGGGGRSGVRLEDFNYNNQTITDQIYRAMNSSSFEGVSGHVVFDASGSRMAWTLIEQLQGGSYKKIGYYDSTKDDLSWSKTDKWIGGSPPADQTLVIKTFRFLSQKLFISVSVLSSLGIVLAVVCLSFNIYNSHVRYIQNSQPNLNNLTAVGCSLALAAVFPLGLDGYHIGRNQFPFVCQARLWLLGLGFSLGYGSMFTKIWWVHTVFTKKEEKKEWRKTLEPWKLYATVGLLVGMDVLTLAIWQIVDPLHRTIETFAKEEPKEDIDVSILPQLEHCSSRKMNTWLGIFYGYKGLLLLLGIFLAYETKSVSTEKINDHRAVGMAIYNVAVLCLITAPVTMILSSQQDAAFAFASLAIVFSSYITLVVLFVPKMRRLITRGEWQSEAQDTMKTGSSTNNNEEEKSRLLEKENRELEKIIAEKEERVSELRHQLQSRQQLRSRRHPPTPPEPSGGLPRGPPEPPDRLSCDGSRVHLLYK
Chain of GABAe (O75899 42-941 partner): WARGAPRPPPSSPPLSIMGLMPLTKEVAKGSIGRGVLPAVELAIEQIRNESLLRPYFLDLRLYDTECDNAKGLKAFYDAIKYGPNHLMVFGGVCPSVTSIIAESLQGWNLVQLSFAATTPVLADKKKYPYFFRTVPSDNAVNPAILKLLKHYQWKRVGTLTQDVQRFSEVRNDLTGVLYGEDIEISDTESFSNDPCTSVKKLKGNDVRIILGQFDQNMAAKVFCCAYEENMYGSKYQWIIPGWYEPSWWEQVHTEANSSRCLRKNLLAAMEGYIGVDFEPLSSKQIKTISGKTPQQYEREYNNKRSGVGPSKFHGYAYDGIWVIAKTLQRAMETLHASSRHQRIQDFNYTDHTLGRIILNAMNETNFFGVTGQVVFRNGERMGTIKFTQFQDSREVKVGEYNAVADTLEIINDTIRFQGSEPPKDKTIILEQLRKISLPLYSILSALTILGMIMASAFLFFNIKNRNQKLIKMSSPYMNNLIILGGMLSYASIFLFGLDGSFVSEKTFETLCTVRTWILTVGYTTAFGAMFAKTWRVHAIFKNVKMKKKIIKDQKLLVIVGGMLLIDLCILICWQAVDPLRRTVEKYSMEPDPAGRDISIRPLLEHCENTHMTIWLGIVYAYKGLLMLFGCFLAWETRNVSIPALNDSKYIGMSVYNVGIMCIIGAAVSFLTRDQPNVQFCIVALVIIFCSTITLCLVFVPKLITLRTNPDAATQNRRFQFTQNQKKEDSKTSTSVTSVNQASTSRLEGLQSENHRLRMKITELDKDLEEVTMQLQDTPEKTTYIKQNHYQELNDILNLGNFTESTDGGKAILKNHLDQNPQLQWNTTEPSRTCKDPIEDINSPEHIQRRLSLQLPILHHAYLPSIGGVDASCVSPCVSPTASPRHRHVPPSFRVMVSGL

Consider `C=C(C)[C@H]1CN[C@H](C(=O)O)[C@H]1CC(=O)O` [Kainic Acid, reference compound], for which, at Kainate (reference compound, [3H]KA), the Ki was found to be 0.0249 µM.

For `O=C1CN=C(c2ccccc2Cl)c2cc([N+](=O)[O-])ccc2N1` [Clonazepam, reference compound], the affinity on Benzodiazepine (reference compound, Benzodiazepine) corresponds to a Ki of 0.0034 µM.

For `CC(Nc1ccc(Cl)cc1)c1ccncc1` (stereo not shown) [Compound 2, 1-(4-Chloroanilino)-1-(4-pyridyl)-ethan], the “Percent Inhibition of specific binding (Average; N = 2)” value (from here on “Percent Inhibition of specific binding”) in the data set with GABAA (1.0^-5 M) is given as 1.2%; in the data set with GABAA (10^-7 M), 6.5%; with Benzodiazepine (1.0^-5 M), -7.8%; with Benzodiazepine (10^-7 M) it was -4.7%; in the data set with NMDA (1.0^-5 M) it was -6.6%; in the data set on NMDA (10^-7 M), 3.5%. Also, the “Percent Inhibition of specific binding” value in the data set with Quisqualate (1.0^-5 M) was 4.3%; with Quisqualate (10^-7 M) it was 4.2%; with MK-801 (1.0^-5 M), 17.0%; with MK-801 (10^-7 M), 13.5%; on Glycine [7] (1.0^-5 M), -1.4%; in the data set on PCF (1.0^-5 M), -1.8%. In addition, the “Percent Inhibition of specific binding” value in the data set with PCF (10^-7 M) is listed as -3.8%; in the data set on Adenosine (1.0^-5 M), -15.9%; in the data set on Adenosine (10^-7 M) it was -15.2%; in the data set with Kainate (1.0^-5 M), -7.3%; in the data set on Kainate (10^-7 M), -3.7%; on GABAe (1.0^-5 M), -4.9%. The “Percent Inhibition of specific binding” value on Glycine [8] (1.0^-5 M) is reported as -4.0%; with Sigma (1.0^-5 M), 49.1%; in the data set with Sigma (10^-7 M), 12.9%. Moreover, the results for the TD50 (in data set [1]; in the data set “in vivo”) were 160 mg/kg and more than 470 mg/kg, respectively. In addition, the median effective dose (ED50) in data set [2] is more than 250 mg/kg; in [3], 53.7 mg/kg; in data set [4] it was 22.9 mg/kg; in data set [5] it was less than 150 mg/kg. For the same molecule, the minimal effective dose in the data set on MES and scMet seizures was less than 100 mg/kg. In addition, the “P.I. MES (TD50/ED50)” value is recorded as 2.98 in [3] and more than 20.53 in data set [4]. In addition, the responders at 50 mg/kg in data set [4] lay within 75 to 100%. For the same molecule, the “activity at the [3H]MK-801-binding receptor sites (in words)” value in the data set with MK-801 is “no activity”. Moreover, the activity at 50 µM amounted to 121 ± 8% in data set [6] (50 μM (K+), 30 mM K+, P < 0.001 vs K+ alone) and 101 ± 6% in data set [6] (50 μM (basal)). Moreover, the activity at 100 µM in data set [6] (100 μM (K+), 30 mM K+, P < 0.001 vs K+ alone) was determined as 114 ± 4%; in data set [6] (100 μM (basal)) it was 99 ± 9%. Besides, in [6] (50 μM), the inhibition at 50 µM is 74%. For the same molecule, in [6] (100 μM), the inhibition at 100 µM was 80%. For the same molecule, the inhibition at 0.1 µM on Glycine [7] (setting [9]) was -1.8%; at GABAe (setting [9]) it was 3.6%; at Glycine [8] (setting [9]), 8.7%. In the data set with PCF, the “activity at the [3H]TCP-binding receptor sites / PCP receptors (in words)” value is reported as “no activity”. The “inhibition of the binding of [3H]DTG” value with Sigma (10 μM concentration) was found to be 49%. Also, in the data set with Sigma, the “inhibition of the binding of [3H]DTG (in words)” value is on record as “inhibit selectively”.

`NCc1cc(=O)[nH]o1` [Muscimol, reference compound]: affinity on GABAA (reference compound, GABAA) was put at a Ki of 0.0028 µM.

The molecule `C[C@@H](N)C(=O)O` [D-Alanine, reference compound] returned a Ki at Glycine [8] (reference compound, [3H]glycine) of 4.9 µM.

As for `Clc1ccc(NCc2ccncc2)cc1` [Compound 11, 1-(4-Chloroanilino)-1-(4-pyridyl)-methan], the TD50 in [1] (mice, i.p., read-out: TD50 (rotorod)) was less than 225 mg/kg; in “in vivo”, more than 500 mg/kg. Moreover, the ED50 is more than 250 mg/kg in [2], 68.4 mg/kg in [3], 39.1 mg/kg in data set [4] and 107 mg/kg in [5]. In the data set with MES and scMet seizures, the minimal effective dose is less than 100 mg/kg. Further, the “P.I. MES (TD50/ED50)” value was less than 3.3 in data set [3] and more than 12.8 in [4]. Moreover, the responders at 50 mg/kg in [4] fell in the range of 50 to 100%. Besides, in the data set on MK-801, the “activity at the [3H]MK-801-binding receptor sites (in words)” value is reported as “no activity”. In the data set on PCF, the “activity at the [3H]TCP-binding receptor sites / PCP receptors (in words)” value is on record as “no activity”. In addition, in the data set with Sigma, the “inhibition of the binding of [3H]DTG (in words)” value was “inhibit selectively”.

On to `CNC(=O)[C@H]1O[C@@H](n2cnc3c(N)ncnc32)[C@H](O)[C@@H]1O` [MECA, reference compound], for which the inhibition constant (Ki) on Adenosine (reference compound, Adenosine) is 0.0395 µM.

The molecule `O=C1C[C@@H]2OCC=C3CN4CC[C@]56c7ccccc7N1[C@H]5[C@H]2[C@H]3C[C@H]46` [Strychnine Nitrate, reference compound] showed a Ki on Glycine [7] of 0.0335 µM.

Consider `O=C(O)C1CN(CCCP(=O)(O)O)CCN1` (stereo not shown) [CPP, reference compound], for which the inhibition constant (Ki) at NMDA (reference compound, [3H]CGS19755) was 0.359 µM.
